In patent publication US11840495B2, “Compositions and methods related to di-substituted bicyclo[2.2.1] heptanamine-containing compounds” (The Broad Institute, Inc., priority 2020, dated 2023):
Where a name gives a salt, the structure may show the parent alone. Read-outs that look alike come from different tables or passages of the source.

Assays:
[1] = system: MUC1-fs; test: Immunofluorescence imaging of MUC1-fs in P cells (Example 2); assay type: cell-based; conditions: for EC50: 48 hr incubation, MUC1-fs; for ECMax (%) / Emax: 48 hr; for ECMax (%): DMSO = 0, JQ1 (250 nM) = −100% activity; for Emax: DMSO = 0, JQ1 = −100% activity, in %
Method: (§1) P cells were seeded 24 hr prior to compound treatment at a density of 12,000 cells/well in 384 well Cell Carrier Ultra plates (6057308, Perkin Elmer), pre-coated with 0.25 mg/mL Synthemax II SC Substrate (3535, Corning). Compounds were used at 5 doses (35, 3.5, 0.35, 0.035 and 0.0035 μM) for the primary screen and 10 doses (16, 5.6, 1.8, 0.6, 0.21, 0.07, 0.02, 0.008, 0.002 and 0.0008 μM) for the following screens. The compounds, in two replicates, were transferred from compound source plates to the cell plates using the HighRes Pin Tool. DMSO was used as a negative control and JQ1 (250 nM) (a bromodomain inhibitor) was chosen as a positive control, based on earlier studies showing its potent effect on reducing total MUC1 mRNA levels (data not shown). After 48 hr incubation, cells were fixed for 20 min in 4% PFA (Electron Microscopy Sciences) in PBS, washed twice, then permeabilized (10 min) with 0.5% Triton-X100 (X100-100ML, Sigma-Aldrich) in PBS and washed once more. Cells were blocked for 10 min at RT with Blocking solution (100 mM Tris HCL pH8; 150 mM NaCL; 5 g/L Blocking Reagent [11096176001, Roche]), then incubated 90 min at RT with one of the following primary antibodies in Roche Blocking solution: 1:500, monoclonal Fab-A-VSH anti-MUC1-fs, AbD22655.2, Bio-Rad; 1:2000, monoclonal mouse anti-MUC1 (214D4), 05-652-KC, Millipore; 1:1000, monoclonal, Rabbit anti-GM130 (D6B1) XP, 12480, Cell signaling technology. The primary antibody cocktail was incubated at RT for 1.5 hr, followed by four PBS wash cycles. The secondary antibody cocktail contained four components that were all prepared at a 1:1000 dilution in the Roche blocking solution and consisted of Alexa Fluor® 488-conjugated AffiniPure F(ab′)2 Fragment Goat anti-Human IgG, 109-546-097, Jackson Immunoresearch; Alexa Fluor® 647-conjugated Goat anti-Rabbit IgG, A-21246, Thermo Fisher Scientific®; Alexa Fluor® 546 Goat anti-mouse IgG, A-21123, Thermo Fisher Scientific® and Hoechst 33342 stain (62249, Thermo Fisher Scientific®). The secondary antibody cocktail was incubated at RT for 45 min, followed by four PBS wash cycles. Finally, plates were sealed with a Plate Loc plate and stored in Liconic incubator at 10° C. until imaging. Following image analysis, three parameters were selected, i) MUC1-fs and ii) MUC1-wt total cytoplasm intensity (averaged per cell) and iii) cell number as was detected by Hoechst 33342 stained nuclei. The levels of MUC1-fs and MUC1-wt found following DMSO and JQ1 were defined as 0 and −100% activity, respectively. The values obtained for all compounds were normalized accordingly. Cell number was normalized to DMSO control.

[2] = system: MUC1-wt; test: Immunofluorescence imaging of MUC1-wt in P cells (Example 2); assay type: cell-based; conditions: for EC50: 48 hr incubation, MUC1-wt; for WT ECMax (%) / WT EMax: 48 hr; for WT ECMax (%): DMSO = 0, JQ1 (250 nM) = −100% activity; for WT EMax: DMSO = 0, JQ1 = −100% activity, in %
Method: as §1

Compound	EC50 ([1]; read-out: EC50(Spot))	ECMax (%) [1]	EC50 ([2]; read-out: WT EC50 (Cytoplasm))	WT ECMax (%) [2]	EC50 ([1]; read-out: EC50)	Emax [1]	EC50 ([2]; read-out: WT EC50)	WT EMax [2]	further results
C[C@@H]1CC[C@@]2(C1)[C@H]1CC[C@H](C1)[C@H]2N.Cl [Compound 210-P1-B]	15.5 µM	−26.85%	> 32 µM	−4.05%					
CC(C)C1(C)C2CCC(C2)C1N.Cl (racemic) [Compound 245, rac-3-isopropyl-3-methylbicyclo[2.2.1]heptan-2-amine hydrochloride]					0.011 µM	−90.2	4.5 µM	106.2	
Cl.NC1C2CCC(C2)C12CC(O)C(O)C2 (racemic) [Compound 228, rac-3-aminospiro[bicyclo[2.2.1]heptane-2,1′-cyclopentane]-3′,4′-diol hydrochloride]					> 16 µM	−15.1	> 16 µM	−10.2	
CCC1(CC)[C@@H]2CC[C@@H](C2)[C@@H]1N [Compound 204-P2]	0.02 µM	−90.34%	1.09 µM	65.02%					
Cl.NC1C2CCC(C2)C12CC1CCC2C1 (racemic) [Compound 238, rac-2,2′-spirobi[bicyclo[2.2.1]heptan]-3-amine hydrochloride]						−96.4		68.9	EC50 ([1]; hydrochloride, read-out: EC50): 0.032 µM; EC50 ([2]; hydrochloride, read-out: WT EC50): 0.74 µM
C[C@@H]1CC[C@@]2(C1)[C@@H]1CC[C@@H](C1)[C@@H]2N.Cl [Compound 211-P2-B]	> 32 µM	−10.93%	> 32 µM	4.75%					
Cl.N[C@@H]1[C@@H]2CC[C@@H](C2)C12CC1CCC2CC1 (stereo partly drawn) [Compound 239, (1S,3R,4R)-spiro[bicyclo[2.2.1]heptane-2,2′-bicyclo[2.2.2]octan]-3-amine hydrochloride]					2.29 µM	−83.1	13.5 µM	62.7	
CN(C)CC1CCCC2(C1)C1CCC(C1)C2N.Cl (racemic) [Compound 223, rac-3′-((dimethylamino)methyl)spiro[bicyclo[2.2.1]heptane-2,1′-cyclohexan]-3-amine hydrochloride]					> 16 µM	−12	> 16 µM	25.7	
CC[C@@]1(Cc2ccccc2)[C@@H]2CC[C@@H](C2)[C@@H]1N.Cl [Compound 219-P2, (1S,2S,3R,4R)-3-benzyl-3-ethylbicyclo[2.2.1]heptan-2-amine hydrochloride]					> 16 µM	−10.3	> 16 µM	11.3	
CC1CC[C@]2(C1)[C@H]1CC[C@H](C1)[C@H]2N.Cl (mixture of isomers) [Compound 210]	0.12 µM	−62.47%	> 32 µM	−10.67%					
NC1C2CCC(C2)C12CC1CCC2C1 (racemic) [Compound 238-B, rac-2,2′-spirobi[bicyclo[2.2.1]heptan]-3-amine]					0.029 µM	−106.4	5.6 µM	40.7	
CC[C@]1(C)[C@H]2CC[C@H](C2)[C@H]1N.Cl (racemic) [Compound 202-rac]	0.05 µM	−76.19%	2.11 µM	125.82%					
CCC1(CC)[C@H]2CC[C@H](C2)[C@H]1N [Compound 204-P1]	0.03 µM	−118.54%	3.32 µM	197.55%					
C[C@@]1(Cc2ccccc2)[C@H]2CC[C@H](C2)[C@H]1N.Cl (racemic) [Compound 207]	> 32 µM	−25.6%	> 32 µM	5.9%					
C[C@]1(c2ccccc2)[C@H]2CC[C@H](C2)[C@H]1N (racemic) [Compound 218, rac-(1R,2R,3R,4S)-3-methyl-3-phenylbicyclo[2.2.1]heptan-2-amine]					13.5 µM	−54.7	> 16 µM	−15.4	
CC1(CC2CC2)C2CCC(C2)C1N.Cl (racemic) [Compound 243-A, rac-3-(cyclopropylmethyl)-3-methylbicyclo[2.2.1]heptan-2-amine hydrochloride]					> 16 µM		> 16 µM		Emax ([1]; hydrochloride): −40.4; WT EMax ([2]; hydrochloride): 3.2
COCC1CCCC2(C1)C1CCC(C1)C2N.Cl (racemic) [Compound 225-2, rac-3′-(methoxymethyl)spiro[bicyclo[2.2.1]heptane-2,1′-cyclohexan]-3-amine hydrogen chloride]					10.1 µM	−20.7	> 16 µM	−11.1	
C[C@]1(N)[C@@H]2CC[C@@H](C2)C12CCCCC2.Cl [Compound 234, (1S,3S,4R)-3-methylspiro[bicyclo[2.2.1]heptane-2,1′-cyclohexan]-3-amine hydrochloride]					4.83 µM	−96	> 16 µM	6.7	
C[C@H]1CCC[C@@]2(C1)[C@@H]1CC[C@@H](C1)[C@@H]2N.Cl [Compound 214-P2-A]	24 µM	−24.69%	> 32 µM	−7.57%					
NC1C2CCC(C2)C12CCC(O)C2 (racemic) [Compound 249A, rac-3-aminospiro[bicyclo[2.2.1]heptane-2,1′-cyclopentan]-3′-ol]					2.2 µM	−98.1	> 16 µM	−7.2	
Cl.N[C@@H]1[C@@H]2CC[C@@H](C2)C12CCCCCC2 (racemic) [Compound 215]	0.11 µM	−56.54%	8.87 µM	63%					
(1S,3R,4R)-spiro[bicyclo[2.2.1]heptane-3,1′-cyclopentan]-2-amine hydrochloride [Compound 209-P2]	0.01 µM	−64.28%	2.06 µM	−210%					
CC1(C)[C@H]2CC[C@H](C2)[C@H]1N (single isomer, unassigned) [Compound 201-P1, hydrochloride]	0.088 µM	−94.91%	10.3 µM	63%					
NC1C2CCC(C2)C12CCCC2 (racemic) [Compound 232, rac-spiro[bicyclo[2.2.1]heptane-2,1′-cyclopentan]-3-amine]					5.99 µM	−68.6	> 16 µM	6.6	
